Data reported in US11141450B2, “Compositions for reducing appetite and craving, increasing satiety, enhancing mood, and reducing stress” (NEKTIUM PHARMA, S.L., priority 2017, dated 2021).

How the values were obtained:
Fisher 344 rats [1] = test: EEG signals by telemetry from implanted electrodes in freely moving rats, Example 1; type: in vivo; conditions: first hour; all brain areas; p<0.01 relative to pre-drug baseline for the reference drugs; Rimonabant 5 mg/kg, Methylphenidate 1.0 mg/kg, Selegiline 1.5 mg/kg; FIG. 1
Source text: Fisher 344 rats (11 months of age and day-night converted, weight about 350-400 g, provided by Charles River Laboratories, D-97633, Sulzfeld) were used in a series of experiments on the effects of various herbal and pharmaceutical products on central nervous system activity. Products were provided to the test subjects orally (gavage).
The substances tested in this study included: • A control vehicle (0.9% NaCl); • Cyperus esculentus tuberous rhizome, ethanol extract, administered in an amount of 200 mg/kg to 7 rats; • Mango leaf, ethanol extract, administered in an amount of 50 mg/kg to 7 rats; • Cyperus Esculentus tuberous rhizome peel, ethanol extract, 150 mg/kg, plus Mango leaf extract, containing 60% of Mangiferin, 50 mg/kg, administered to 5 rats • Selegiline, administered in amount of 1.5 mg/kg to 8 rats • Methylphenidate administered in an amount of 1.0 mg/kg to 8 rats • Rimonabant administered in amount of 5 mg/kg to 6 rats
EEG signals were recorded by telemetry from 4 implanted electrodes in the frontal cortex, hippocampus and striatum of freely moving rats from inside a totally copper shielded room. Signals were collected in sweeps of 4-second duration and Fast Fourier transformed using a Hanning window. EEG signals were recorded over a period starting 5 minutes after administration of the test substances, and ending 65 minutes after administration of the test substances. Sampling frequency was 512 Hz. […] In an off-line procedure, the spectra were averaged to give longer periods for further analysis and data presentation. Spectral activity within the frontal cortex, hippocampus, striatum and reticular formation was recorded.

Fisher 344 rats [2] = test: EEG signals by telemetry from implanted electrodes in freely moving rats, first hour and fifth hour, Example 2; type: in vivo; conditions: first hour after administration and 5 hours after administration
Experimental: Products were provided to the test subjects orally (gavage).
EEG signals were recorded by telemetry from 4 implanted electrodes in the frontal cortex, hippocampus and striatum of freely moving rats from inside a totally copper shielded room.

Row | Compound | effect on alpha-2 waves (Fisher 344 rats [1]) | impact on alpha-1 brain wave activity in the hippocampus (Fisher 344 rats [2])
1 | COC(=O)C(c1ccccc1)C1CCCCN1 (stereo not shown) [Methylphenidate] | main significant effect | –
2 | Cc1c(C(=O)NN2CCCCC2)nn(-c2ccc(Cl)cc2Cl)c1-c1ccc(Cl)cc1 [Rimonabant] | main significant effect | –
3 | C#CCN(C)[C@H](C)Cc1ccccc1 [Selegiline] | main significant effect | –
4 | O=c1c2cc(O)c(O)cc2oc2cc(O)c([C@@H]3O[C@H](CO)[C@@H](O)[C@H](O)[C@H]3O)c(O)c12 [pure Mangiferin, Mangiferin] | – | Neither Tigernut extract nor Mango leaf extract (60% Mangiferin) or pure Mangiferin administered alone showed a significant decrease of alpha-1 brain wave activity
